# Data published in patent US11623009B2, “Bone fracture repair by targeting of agents that promote bone healing” (Purdue Research Foundation, priority 2015, dated 2023).
# Columns and labels:
# solubility in water = type: physicochemical; details: 6BIO by itself
# Text: The drug being attached to the unimers was a GSK3β inhibitor, 6BIO. […] By including 6BIO in the unimer design, the unimer solubilized the drug while the drug stabilized the micelle. The oxime of 6BIO was first conjugated to the carboxylic group of a 4-pentynoic acid derivative and then clicked to the azide-containing unimer by the alkyne on the 4-pentynoic acid derivative. Upon completion of the click reaction, the micelle was purified, dried, and formed micelles upon reconstitution in PBS.
# [1] = 24 h organ biodistribution of radio-iodinated micelles and 6BIO in mice with femoral fracture; type: in vivo, CD4 Swiss mice
# Experimental: Radio-iodination of micelles and 6BIO. The stannylated unimers and stannylated 6BIO (0.3-0.5 μmol) were dissolved in 100 μL DMF. The solutions were transferred to Wheaton V-vials containing a solution of [^125I]NaI (5.0 mCi) in 100 μL DMF phosphate-buffered saline (PBS) (pH 7.4). Chloramine-T was added, and the reaction mixture stirred for 15 min at ambient temperature. Purification of the iodinated micelles was performed using a LH20 column eluted with MeOH. Iodinated 6BIO was dissolved in EtOAc and was washed twice with water. The solvent of all three reactions was evaporated using a stream of nitrogen, and the residue was dissolved with PBS (pH 7.4) to obtain solutions with an activity concentration of 370 kBq/100 μL. The overall radiochemical yield was ca. 10%.
# Murine fracture induction. […] The skin incision was made medial parapetellar.
# Injection and dissection techniques/counting for 24 h biodistribution. From the iodinated products described previously 1 uCi/mL solutions were made in sterile PBS. […] Two weeks following fracture induction, each mouse received a 0.1 μCi (0.1 mL) dose of the radio-iodinated linear micelles, branched micelle, or free drug. Animals were then placed back in their cages for 24 h. At 24 h they were sacrificed using CO2 excess. Blood was drawn from a cardiopuncture and all other organs measured were removed (lungs, liver, spleen, kidneys, fractured femur, healthy femur). The activity was counted using Packard Cobra Auto-Gamma and was normalized by dividing the count rate by the weights of each organ.
# Biodistribution: Organ biodistribution at 24 h. […] Although a cleavable linker is necessary for therapy studies, it may pose a problem with biodistribution studies. At 24 h of an in vivo study, 30% of the drug may be released. In a biodistribution study, premature release would not give accurate information on how well the targeting ligand is able to remain in the fracture site. A non-degradable oxime ether linker replaced the oxime-ester linker in the micelles for biodistribution. […]
# [2] = system: stabilized femoral fracture; test: fracture healing efficacy, μCT analysis of fracture callus; type: in vivo, male CD4 Swiss Webster mice; details: 6.9 nmol/kg/dose i.v. every 3 days, 3 weeks after fracture, mean±SEM
# Experimental: Mouse handling. All animal experiments were performed in accordance to Purdue University's IACUC approved protocols. Forty mice (10 per group) 31-35 g male CD4 Swiss Webster mice were purchased from Harlan laboratories. Mice were able to move freely throughout the experiment. At 3 weeks following fracture induction, mice were euthanized using a CO2 overdose. […] Mouse bone fracture. […] The skin incision was made over the knee. The patella was then dislocated and a small hole was made under the patella with a 25 guage needle. The needle was used to ream the intramedullary canal. A 22 guage locking nail was produced by flattening both ends was then inserted. The incision site was sutured and the femur was then fractured using a three-point bending device. […] Mouse dosing. Mice were dosed intravenously by tail vein injection every 3 days starting on the day of fracture induction. […] Mice receiving drug dosages were administered drugs at the follow dose 6.9 nmol/kg/dose in approximately 0.1 mL of PBS. PBS control mice received 0.1 mL of PBS. μCT analysis. […] The bones were scanned while immersed in PBS to prevent dehydration. Scanco μCT software was used to analyze the images for bone density, total volume (TV), relative bone volume (BV/TV), trabecular thickness (Tb.Th), and trabecular spacing (Tb.Sp). Volumes of interest included the fracture callus, and both cortical and trabecular bone between the points on the cortical bone where the bone was fractured. Statistical analysis. Statistical analyses were calculated using Prism GraphPad software. Data is presented in results as mean±standard error of the mean (SEM).
# [3] = mouse, in vivo
# Experimental: CD4 Swiss mice (30-35 g) acquired from Harlan laboratories were used for these experiments.
# The study was performed on 3 groups of mice with 5 mice per group. Two weeks following fracture induction each mouse received 0.1 mCi (0.1 mL) of dose. Animals were then returned to their cages until euthanasia by CO2 overdose at the desired time point (1 h, 4 h, 24 h). Animals were imaged using MiLabs U-SPECT-II/CT. 3D reconstructions were performed using Image J software.
# SPECT/CT biodistribution.
# [4] = 24 h after injection, two weeks after fracture, 125I-labelled, non-degradable oxime ether linker
smiles,measurement,setting,value
"O=C1Nc2ccccc2C1=C1Nc2cc(Br)ccc2C1=NO [6BIO, 6′-bromoindirubin-3′-oxime]",solubility in water,solubility in water,not soluble in water
same,"accumulation in the lungs, liver, and spleen",[1]; 24 h,high accumulation
same,accumulation in fractured femurs,[1]; [4],0.4±0.05% of injected dose/gram
same,accumulation in healthy femurs,[1]; [4],0.5±0.10% of injected dose/gram
same,Tb. Sp (trabecular spacing),[2],0.191 ± 0.009 mm
same,bone density of fracture callus,[2],337.8±14.2 mg HAp/cm^3
same,BV/TV (relative bone volume),[2]; listed as Free 6BIO,0.338 ± 0.015
same,TV (callus total volume),[2]; listed as Free 6BIO,48.2 ± 5.8 mm^3
same,Tb. Th (trabecular thickness),[2]; listed as Free 6BIO,0.134 ± 0.007 mm
same,BV/TV (relative bone volume),[2]; listed as free 6BIO,0.338±0.015
same,TV (callus total volume),[2]; listed as free 6BIO,48.2±5.8 mm^3
same,Tb. Th (trabecular thickness),[2]; listed as free 6BIO,0.134±0.007 mm
same,SPECT/CT distribution at 1 h,[3],primarily found in the stool
same,SPECT/CT distribution at 4 h,[3],primarily contained in the bowel
same,SPECT/CT distribution at 24 h,[3],appears to be cleared
